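Here, GI50 denotes the concentration required for 50% inhibition of growth. The concentration for full growth arrest is given as TGI.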
How the values were obtained:
Test in all cases: inhibition of tumour cell growth, NCI panel, 384-well format
MALME-3M melanoma = test system: MALME-3M melanoma
NCI-H23 lung = test system: NCI-H23 lung
MCF7 breast = test system: MCF7 breast
OVCAR-3 ovarian = test system: OVCAR-3 ovarian
MDA-MB-468 breast = test system: MDA-MB-468 breast
MDA-MB-435 melanoma = test system: MDA-MB-435 melanoma
SR leukemia = test system: SR leukemia
MDA-MB-231 breast = test system: MDA-MB-231 breast
HL-60(TB) leukemia = test system: HL-60(TB) leukemia
BT-549 breast = test system: BT-549 breast
DU-145 prostate = test system: DU-145 prostate
ACHN renal = test system: ACHN renal
HCT-116 colon = test system: HCT-116 colon
A498 renal = test system: A498 renal
RPMI-8226 leukemia = test system: RPMI-8226 leukemia
OVCAR-5 ovarian = test system: OVCAR-5 ovarian
OVCAR-4 ovarian = test system: OVCAR-4 ovarian
SK-MEL-5 melanoma = test system: SK-MEL-5 melanoma
HOP-62 NSCLC = test system: HOP-62 NSCLC
NCI-H522 lung = test system: NCI-H522 lung
PC-3 prostate = test system: PC-3 prostate
CCRF-CEM leukemia = test system: CCRF-CEM leukemia
UACC-257 melanoma = test system: UACC-257 melanoma
IGROV1 ovarian = test system: IGROV1 ovarian
SF-268 CNS = test system: SF-268 CNS
CAKI-1 renal = test system: CAKI-1 renal
SF-539 CNS = test system: SF-539 CNS
RXF 393 renal = test system: RXF 393 renal
SN12C renal = test system: SN12C renal
SK-MEL-2 melanoma = test system: SK-MEL-2 melanoma
SNB-19 CNS = test system: SNB-19 CNS
SK-MEL-28 melanoma = test system: SK-MEL-28 melanoma
OVCAR-8 ovarian = test system: OVCAR-8 ovarian
A549 NSCLC = test system: A549 NSCLC
SF-295 CNS = test system: SF-295 CNS
NCI-H322M lung = test system: NCI-H322M lung
NCI-H226 lung = test system: NCI-H226 lung
M14 melanoma = test system: M14 melanoma
KM12 colon = test system: KM12 colon
SW-620 colon = test system: SW-620 colon
HOP-92 NSCLC = test system: HOP-92 NSCLC
MOLT-4 leukemia = test system: MOLT-4 leukemia
K-562 leukemia = test system: K-562 leukemia
U251 glioblastoma = test system: U251 glioblastoma
HCC-2998 colon = test system: HCC-2998 colon
NCI-H460 NSCLC = test system: NCI-H460 NSCLC
786-0 renal = test system: 786-0 renal
UACC-62 melanoma = test system: UACC-62 melanoma
T-47D breast = test system: T-47D breast
SK-OV-3 ovarian = test system: SK-OV-3 ovarian
COLO 205 colon = test system: COLO 205 colon
LOX IMVI melanoma = test system: LOX IMVI melanoma
NCI/ADR-RES ovarian = test system: NCI/ADR-RES ovarian
TK-10 renal = test system: TK-10 renal
HCT-15 colon = test system: HCT-15 colon
HT29 colon = test system: HT29 colon
UO-31 renal = test system: UO-31 renal

Question: What does the source list for `CCN1[C@@H](C(=O)NC23CCC(C(=O)O)(CC2)CC3)[C@H](c2cccc(Cl)c2F)[C@]2(C(=O)Nc3cc(Cl)ccc32)C12CCCCC2`?
Answer: GI50 (MALME-3M melanoma): 14 nM; TGI (MALME-3M melanoma): 659 nM; GI50 (NCI-H23 lung): 1490 nM; TGI (NCI-H23 lung): 3950 nM; GI50 (MCF7 breast): 26.9 nM; TGI (MCF7 breast): 1120 nM; GI50 (OVCAR-3 ovarian): 1440 nM; TGI (OVCAR-3 ovarian): 2900 nM; GI50 (MDA-MB-468 breast): 1700 nM; TGI (MDA-MB-468 breast): 3610 nM; GI50 (MDA-MB-435 melanoma): 2260 nM; TGI (MDA-MB-435 melanoma): 5650 nM; GI50 (SR leukemia): < 10 nM; GI50 (MDA-MB-231 breast): 3130 nM; TGI (MDA-MB-231 breast): 14200 nM; GI50 (HL-60(TB) leukemia): 2030 nM; TGI (HL-60(TB) leukemia): 3460 nM; GI50 (BT-549 breast): 1930 nM; TGI (BT-549 breast): 6160 nM; GI50 (DU-145 prostate): 3390 nM; TGI (DU-145 prostate): 12300 nM; GI50 (ACHN renal): 19.4 nM; TGI (ACHN renal): 390 nM; GI50 (HCT-116 colon): 30.3 nM; TGI (HCT-116 colon): 1490 nM; GI50 (A498 renal): 13.6 nM; TGI (A498 renal): 1090 nM; GI50 (RPMI-8226 leukemia): 1260 nM; TGI (RPMI-8226 leukemia): 2510 nM; GI50 (OVCAR-5 ovarian): 1920 nM; TGI (OVCAR-5 ovarian): 4660 nM; GI50 (OVCAR-4 ovarian): 2220 nM; TGI (OVCAR-4 ovarian): 7320 nM; GI50 (SK-MEL-5 melanoma): 239 nM; TGI (SK-MEL-5 melanoma): 1810 nM; GI50 (HOP-62 NSCLC): 1590 nM; TGI (HOP-62 NSCLC): 4190 nM; GI50 (NCI-H522 lung): 2410 nM; TGI (NCI-H522 lung): 6920 nM; GI50 (PC-3 prostate): 2880 nM; TGI (PC-3 prostate): 9400 nM; GI50 (CCRF-CEM leukemia): 1420 nM; TGI (CCRF-CEM leukemia): 2750 nM; GI50 (UACC-257 melanoma): 148 nM; TGI (UACC-257 melanoma): 431 nM; GI50 (IGROV1 ovarian): 244 nM; TGI (IGROV1 ovarian): 2770 nM; GI50 (SF-268 CNS): 2340 nM; TGI (SF-268 CNS): 6800 nM; GI50 (CAKI-1 renal): < 10 nM; TGI (CAKI-1 renal): 418 nM; GI50 (SF-539 CNS): 2120 nM; TGI (SF-539 CNS): 5190 nM; GI50 (RXF 393 renal): 1020 nM; TGI (RXF 393 renal): 2560 nM; GI50 (SN12C renal): 3530 nM; TGI (SN12C renal): 12700 nM; GI50 (SK-MEL-2 melanoma): 638 nM; TGI (SK-MEL-2 melanoma): 2160 nM; GI50 (SNB-19 CNS): 3090 nM; TGI (SNB-19 CNS): 12800 nM; GI50 (SK-MEL-28 melanoma): 2760 nM; TGI (SK-MEL-28 melanoma): 7420 nM; GI50 (OVCAR-8 ovarian): 3000 nM; TGI (OVCAR-8 ovarian): 11400 nM; GI50 (A549 NSCLC): 45.2 nM; TGI (A549 NSCLC): 1140 nM; GI50 (SF-295 CNS): 1240 nM; TGI (SF-295 CNS): 2670 nM; GI50 (NCI-H322M lung): 3870 nM; TGI (NCI-H322M lung): 15100 nM; GI50 (NCI-H226 lung): < 10 nM; TGI (NCI-H226 lung): 81.7 nM; GI50 (M14 melanoma): 35 nM; TGI (M14 melanoma): 2370 nM; GI50 (KM12 colon): 2870 nM; TGI (KM12 colon): 9120 nM; GI50 (SW-620 colon): 3790 nM; TGI (SW-620 colon): 13400 nM; GI50 (HOP-92 NSCLC): 1770 nM; TGI (HOP-92 NSCLC): 4430 nM; GI50 (MOLT-4 leukemia): < 10 nM; GI50 (K-562 leukemia): 2830 nM; TGI (K-562 leukemia): 11000 nM; GI50 (U251 glioblastoma): 3070 nM; TGI (U251 glioblastoma): 11500 nM; GI50 (HCC-2998 colon): 1270 nM; TGI (HCC-2998 colon): 2910 nM; GI50 (NCI-H460 NSCLC): 29.4 nM; TGI (NCI-H460 NSCLC): 1080 nM; GI50 ([…]-0 renal): 3490 nM; TGI (786-0 renal): 13500 nM; GI50 (UACC-62 melanoma): < 10 nM; TGI (UACC-62 melanoma): 364 nM; GI50 (T-47D breast): 1620 nM; TGI (T-47D breast): 6270 nM; GI50 (SK-OV-3 ovarian): 2960 nM; TGI (SK-OV-3 ovarian): 13700 nM; GI50 (COLO 205 colon): 2200 nM; TGI (COLO 205 colon): 4460 nM; GI50 (LOX IMVI melanoma): 323 nM; TGI (LOX IMVI melanoma): 1840 nM; GI50 (NCI/ADR-RES ovarian): 3640 nM; TGI (NCI/ADR-RES ovarian): 13600 nM; GI50 (TK-10 renal): 2890 nM; TGI (TK-10 renal): 11400 nM; GI50 (HCT-15 colon): 2660 nM; TGI (HCT-15 colon): 10100 nM; GI50 (HT29 colon): 3520 nM; TGI (HT29 colon): 13900 nM; GI50 (UO-31 renal): 19.3 nM; TGI (UO-31 renal): 161 nM

Reference: PubChem BioAssay (NCI)
